In patent publication US6797807B1, “Compounds and methods for cancer therapy” (Adherex Technologies, Inc., priority 1997, dated 2004):

Tests used:
[1] = test system: Madin Darby canine kidney (MDCK) cells; assay: Electrical resistance across MDCK cell monolayers; format: cell-based; conditions: 24 hours; for mean electrical resistance across MDCK cell monolayers: 0.5 mg/ml peptide, relative to the control (medium alone), FIG. 9; for formation of tight junctions in epithelial cells: conclusion from MDCK electrical resistance, 0.5 mg/ml
Experimental: Yet another assay evaluates the effect of an occludin modulating agent on the electrical resistance across a monolayer of cells. For example, Madin Darby canine kidney (MDCK) cells can be exposed to the modulating agent dissolved in medium (e.g., at a final concentration of 0.5 mg/ml for a period of 24 hours). The effect on electrical resistance can be measured using standard techniques. This assay evaluates the effect of a modulating agent on tight junction formation in epithelial cells. In general, the presence of 500 μg/mL modulating agent should result in a statistically significant increase or decrease in electrical resistance after 24 hours.
Madin Darby canine kidney (MDCK) cells were plated in Millicells (Millipore, Bedford, Mass.), at a density of 300,000 cells per Millicell, and cultured in Dulbecco's Modified Eagle Medium (DMEM; Sigma, St. Louis, Mo.) containing 5% fetal calf serum (Sigma, St. Louis, Mo.). Monolayers were exposed to the modulating agent dissolved in medium at a final concentration of 0.5 mg/ml for a period of 24 hours. The electrical resistance was measured using the EVOM device (World Precision Instruments, Sarasota, Fla.). At the time of measurement, fresh medium, with or without the modulating agent, may be added to the Millicells.

[2] = test system: Human aortic endothelial cells (HAEC); assay: Endothelial cell adhesion assay: occludin and VE-cadherin immunolocalization in HAEC monolayers; format: cell-based; conditions: 1 hour
Description: The effect of a modulating agent on endothelial cell adhesion may generally be evaluated using immunolocalization techniques. Human aortic endothelial cells (HAEC) may be cultured on fibronectin-coated coverslips (fibronectin may be obtained from Sigma, St. Louis, Mo.) according to the procedures of Jaffe et al., J. Clin. Invest. 52:2745-2756, 1973. Briefly, human endothelial cells may be maintained in EGM (endothelial cell growth medium; Clonetics, San Diego, Calif.) and used for experiments at passage 4. Confluent cultures of HAEC may be exposed to either a candidate modulating agent (final concentration 100 μg/ml EGM), or EGM alone for 1 hour. The cells are then be fixed for 30 minutes at 4° C. in 95% ethanol, followed by fixation in acetone for 1 minute at 4° C. (Furuse et al., J. Cell Biol. 123:1777-1788, 1993). After fixation, the cells may be probed with either mouse anti-VE-cadherin antibodies (Hemeris, Sassenage, France; diluted 1:250 in 0.1% dried skim milk powder dissolved in PBS), or rabbit anti-occludin antibodies (Zymed, South San Francisco, Calif.; diluted 1:300 in 0.1% dried skim milk powder dissolved in PBS) for 1 hour at 37° C. The cells may then be washed with 0.1% dried skim milk powder dissolved in PBS (three washes, 5 minutes/wash), and probed with secondary antibodies (donkey anti-mouse Cy3, or donkey anti-rabbit Cy5 diluted 1:250 in 0.1% dried skim milk powder dissolved in PBS; Jackson Immunoresearch Laboratories Inc., Westgrove, Pa.) for 1 hour at 37° C. The cells may then be washed again with in 0.1% dried skim milk powder dissolved in PBS and mounted in a solution composed of 50% glycerol and 50% PBS to which phenylenediamine (Sigma, St. Louis, Mo.) has been added to a final concentration of 1 mg/ml. The sample may then be analyzed using a Bio-Rad MRC 1000 confocal microscope with Laser Sharp software version 2.1T (Bio-Rad, Hercules, Calif.). In general, 0.1 mg/ml of modulating agent results in the appearance of intercellular gaps within the monolayer cultures and a decrease of at least 50% in the surface expression of occludin and VE-cadherin, as compared to monolayer cultures that were not exposed to the modulating agent.
Human aortic endothelial cells (HAEC) were cultured on fibronectin (Sigma, St. Louis, Mo.) according to the procedures of Jaffe et al., J. Clin. Invest. 52:2745-2756, 1973. Cells were maintained in EGM (endothelial cell growth medium; Clonetics, San Diego, Calif.) and used for experiments at passage 4.
HAEC were cultured on fibronectin-coated coverslips. Confluent cultures of HAEC were exposed to linear peptides (final concentration 100 μg/ml EGM), or EGM alone for 1 hour. […] The samples were analyzed using a Bio-Rad MRC 1000 confocal microscope with Laser Sharp software version 2.1T (Bio-Rad, Hercules, Calif.). […]

Adult rats = assay: Miles assay for vascular permeability (Evans blue); format: in vivo; conditions: rat
Experimental: The ability of an agent to modulate cell adhesion may generally be evaluated in vivo by assessing the effect on vascular permeability utilizing the Miles assay (McClure et al., J. Pharmacological & Toxicological Methods 32:49-52, 1994). Briefly, a candidate modulating agent may be dissolved in phosphate buffered saline (PBS) at a concentration of 100 μg/ml. Adult rats may be given 100 μl subdermal injections of each peptide solution into their shaved backs, followed 15 minutes later by a single 250 μl injection of 1% Evans blue dissolved in PBS into their tail veins. The subdermal injection sites may be visually monitored for the appearance of blue dye. Once the dye appears (about 15 minutes after injection), each subdermal injection site may be excised, weighed, and placed in 1 ml dimethylformamide for 24 hours to extract the dye. The optical density of the dye extracts may then be determined at 620 nm. In general, the injection of 0.1 ml of modulating agent (at a concentration of 0.1 mg/ml) into the backs of rats causes an increase of dye accumulation at the injection sites of at least 50%, as compared to dye accumulation at sites into which PBS has been injected.
The ability of cyclic and linear peptides to increase vascular permeability was assessed utilizing the Miles assay (McClure et al., J. Pharmacological & Toxicological Meth. 32:49-521994). The peptides were dissolved in phosphate buffered saline (PBS) at a concentration of 100 μg/ml. Adult rats were given 100 μl subdermal injections of each peptide solution into their shaved backs, followed 15 minutes later by a single 250 μl injection of 1% Evans blue dissolved in PBS into their tail veins. The subdermal injection sites were visually monitored for the appearance of blue dye. Once the dye appeared (15 minutes after injection), each subdermal injection site was excised, weighed, and placed in 1 ml dimethylformamide for 24 hours to extract the dye. The optical density of the dye extracts was determined at 620 nm. […]

[3] = 100 μg/ml peptide, compared to untreated cells

Substance | mean electrical resistance across MDCK cell monolayers [1] | formation of tight junctions in epithelial cells [1] | formation of tight junctions in epithelial cells ([1]; listed as N-Ac-CLYHYC-NH2) | adhesion between endothelial cells (retraction of cells from one another) ([2]; 100 μg/ml peptide in EGM, vs untreated, FIG. 4B) | formation of cobblestone-like monolayers ([2]; 100 μg/ml peptide) | surface expression of VE-cadherin [2, 3] | surface expression of occludin [2, 3] | optical densities of dimethylformamide dye extracts from excised injection sites (Adult rats; 100 μg/ml peptide subdermal, OD at 620 nm, compared with PBS and the N-acetyl/C-amide peptides, FIG. 6, FIG. 8) | accumulation of Evans blue at the injection sites (visual) (Adult rats; 100 μl subdermal injection of 100 μg/ml peptide in PBS, Evans blue i.v. 15 min later, compared with PBS, acetyl-QYLYHYCVVD-NH2 and H-QYLYHYCVVD-NH2 sites, FIG. 5) | formation of tight junctions in epithelial cells ([1]; listed as H-QYLYHYCVVD-COOH)
acetyl-CLYHYC-NH2 (Ac-CLYHYC-NH2; also: cyclic, kind not given here) [Peptide 4] | increased the electrical resistance | stimulate the formation of tight junctions in epithelial cells | stimulating the formation of tight junctions in epithelial cells |  |  |  |  |  |  | 
H-QYLYHYCVVD-NH2 [Peptide 2] | reduce the electrical resistance |  |  |  |  |  |  |  |  | 
H-QYLYHYCVVD-OH [Peptide 3] | increased the electrical resistance | stimulate the formation of tight junctions in epithelial cells |  | adhesion is decreased | do not form cobblestone-like monolayers | greatly reduced | greatly reduced | more dye was extracted | more blue dye has accumulated | stimulating the formation of tight junctions in epithelial cells
